The source of these data is US5891882A, “Benzopyranopyrrole and benzopyranopyridine α-1 adenergic compounds” (priority 1997, dated 1999).

As a reminder, the pKi is −log10 of the Ki, conventionally taken in molar units. High values mean a low Ki, low ones a high Ki.

Assay [1] addresses T1, α-1A adrenoreceptor (rat submaxillary gland) (Rattus norvegicus, UniProt P43140).
T1 construct: Rat submaxillary glands were used for α-1A adrenoreceptors; from tissue; host or cells: rat submaxillary gland membranes
T1 sequence (P43140 1-466): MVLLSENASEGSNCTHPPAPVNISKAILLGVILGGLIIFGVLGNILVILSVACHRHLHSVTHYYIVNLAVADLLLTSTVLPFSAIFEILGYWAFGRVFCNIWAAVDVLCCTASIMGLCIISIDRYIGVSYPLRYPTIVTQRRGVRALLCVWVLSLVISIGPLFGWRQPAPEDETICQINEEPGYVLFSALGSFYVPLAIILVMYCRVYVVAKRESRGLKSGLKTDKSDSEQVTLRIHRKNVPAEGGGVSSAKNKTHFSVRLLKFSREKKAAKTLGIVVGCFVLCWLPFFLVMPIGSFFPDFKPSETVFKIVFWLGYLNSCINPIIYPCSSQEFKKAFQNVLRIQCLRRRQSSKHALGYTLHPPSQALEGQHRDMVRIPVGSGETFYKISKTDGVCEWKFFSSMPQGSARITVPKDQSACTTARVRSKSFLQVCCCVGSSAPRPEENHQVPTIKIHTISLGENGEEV
In words: In vitro [3H]-prazosin radioligand binding, pharmacologically defined α-1A adrenoreceptor (rat submaxillary gland). The method, then: (§1) Additionally, binding affinity against the pharmacologically defined α-1A adrenoreceptor (rat submaxillary gland) was measured.
(§2) On the fifth day of culture, growth medium was removed from cells grown in roller bottles, and the cells were washed twice with PBS (Sigma, 120 mM NaCl, 2.7 mM KCl, 10 mM Na2 HPO4 --NaH2 PO4, pH=7.4). Cells were detached from the roller bottles by incubating for 15 minutes at 37° C. in a Tris-EDTA solution (10 mM Tris, 100 mM NaCl, 1 mM EDTA, pH=7.4). The cell suspension from each roller bottle was decanted into tared centrifuge tubes and kept on ice. An aliquot of each cell suspension was generally taken for cell counting. Cells were centrifuged at 3000×G for 5 min at 2°-4° C., washed with PBS and recentrifuged. The supernatant was decanted and the pellet weighed to determine the wet weight of cells. Cells were washed a final time in 40 vol 5 mM Tris-HCl, 5 mM EDTA, pH=7.7, and centrifuged at 40,000×G for 10 minutes. Cells were homogenized in 10 mL of 50 mM Tris-HCl, 5 mM EDTA (pH=7.4) and diluted to 40 mL/tube. Homogenates were centrifuged at 40,000×G for 10 minutes. The supernatant was decanted and the pellets rehomogenized in 50 mM Tris-HCl (pH=7.4) and centrifuged as before. The supernatant was decanted and the homogenate resuspended in 6.25 volumes (per gram wet weight) of 50 mM Tris-HCl and aliquots of the pooled homogenates frozen in liquid N2 and stored at -70° C. until the time of assay. Rat submaxillary glands were used for α-1A adrenoreceptors and were prepared essentially as described (Michel, A. D., Loury, D. N. and Whiting, R. L., Brit. J. Pharmacol. 98: 83-889 (1989)).
(§3) Receptor binding assays for α-1 adrenoreceptors were performed essentially as described by Greengrass and Bremner (Eur. J. Pharmacol. 55: 323-326 (1979)). […] Radioactivity was determined by standard liquid scintillation techniques. Data were analyzed as previously described (Hancock, A. A., Kyncl, J. J., Martin, Y. C. and DeBernardis, J. F., J Receptor Res. 8: 23-46 (1988)).

For assay [2], the target named is T2, α-1a adrenoreceptor (bovine) (Bos taurus, UniProt P18130).
T2 construct: expressed in transfected cells; cDNA from TULCO; membranes
T2 sequence (P18130 1-466): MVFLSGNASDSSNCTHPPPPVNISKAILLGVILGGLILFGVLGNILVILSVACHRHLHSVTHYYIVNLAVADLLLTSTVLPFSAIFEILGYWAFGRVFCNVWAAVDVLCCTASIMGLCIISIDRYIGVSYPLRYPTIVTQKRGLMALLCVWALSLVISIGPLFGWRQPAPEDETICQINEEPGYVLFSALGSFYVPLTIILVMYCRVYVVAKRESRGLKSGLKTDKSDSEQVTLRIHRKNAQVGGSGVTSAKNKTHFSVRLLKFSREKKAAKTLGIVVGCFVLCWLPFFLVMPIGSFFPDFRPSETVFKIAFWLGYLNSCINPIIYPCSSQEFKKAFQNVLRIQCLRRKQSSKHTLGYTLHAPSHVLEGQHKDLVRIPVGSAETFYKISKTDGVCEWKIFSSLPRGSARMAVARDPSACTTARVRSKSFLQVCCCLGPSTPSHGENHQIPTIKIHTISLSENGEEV
Kind of assay: In vitro [3H]-prazosin radioligand binding, cloned α-1a adrenoreceptor expressed in LTK cells.
Source text: (§4) The cDNA clones encoding the α-1 adrenoreceptors (α-1a, α-1b, and α-1d) were obtained from TULCO (Triangle Universities Licensing Consortium, Research Triangle Park, N.C.) and inserted into the eukaryotic expression vector SnaB30. In this vector, expression of the adrenoreceptor gene is under the transcriptional control of an SV40 early promoter. Positive drug selection is provided by a neomycin-resistance gene. Mouse fibroblast cells (LTK) were transfected with the α1 expression plasmids and grown in Dulbecco's modified Eagle's medium (DMEM) containing 10% fetal calf serum and […]. Stable G418-resistant parental lines were generated, with successful expression of adrenoreceptor protein monitored using radioligand binding techniques. Stable single cell clones derived from the parental lines were screened in adrenoreceptor binding assays to identify clones having high adrenoreceptor density. Roller bottle cultures of the cloned lines were used to provide cell membranes for subsequent adrenoreceptor binding characterization studies. A cell line containing the SnaB30 vector expressing the human erythropoietin gene served as a negative control.
(§5) For adrenoreceptor binding assays, large scale membrane preparations were utilized in which 6 million cells were seeded into small (450 cm^2) Corning tissue culture roller bottles. 200 mL of DMEM containing 10% fetal calf serum and 300 μM G418 were added to each roller bottle. A 95% air/5% CO2 gas mixture (sterile) was injected into each roller bottle prior to sealing. The bottles were then incubated at 37° C. on a roller rack for 5 days. Cells were re-fed with fresh medium after 3 days in culture.
as §2, §3

Assay [3] concerns the target T3, α-1b adrenoreceptor (hamster) (Mesocricetus auratus, UniProt P18841).
T3 construct: expressed in transfected cells; cDNA from TULCO; membranes
T3 sequence (P18841 1-515): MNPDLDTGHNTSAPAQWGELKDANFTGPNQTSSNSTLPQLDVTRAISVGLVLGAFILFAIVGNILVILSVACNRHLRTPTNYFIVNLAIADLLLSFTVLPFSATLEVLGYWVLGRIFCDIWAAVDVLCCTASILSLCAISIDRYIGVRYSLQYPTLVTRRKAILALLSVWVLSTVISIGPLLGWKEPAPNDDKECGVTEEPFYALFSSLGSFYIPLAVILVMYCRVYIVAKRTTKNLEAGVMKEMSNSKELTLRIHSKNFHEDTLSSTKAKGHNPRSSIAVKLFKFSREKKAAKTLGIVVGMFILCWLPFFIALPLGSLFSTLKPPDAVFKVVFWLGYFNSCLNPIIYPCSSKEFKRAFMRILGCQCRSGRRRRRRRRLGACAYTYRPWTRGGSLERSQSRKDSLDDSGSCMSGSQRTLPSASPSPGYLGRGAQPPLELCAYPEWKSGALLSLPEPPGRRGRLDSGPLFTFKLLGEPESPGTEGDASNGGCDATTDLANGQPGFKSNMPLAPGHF
Kind of assay: In vitro [3H]-prazosin radioligand binding, cloned α-1b adrenoreceptor expressed in LTK cells.
Source text: as §4, §5, §2, §3

Assay [4] concerns the target T4, α-1d adrenoreceptor (rat) (Rattus norvegicus, UniProt P23944).
T4 construct: expressed in transfected cells; cDNA from TULCO; membranes
T4 sequence (P23944 1-561): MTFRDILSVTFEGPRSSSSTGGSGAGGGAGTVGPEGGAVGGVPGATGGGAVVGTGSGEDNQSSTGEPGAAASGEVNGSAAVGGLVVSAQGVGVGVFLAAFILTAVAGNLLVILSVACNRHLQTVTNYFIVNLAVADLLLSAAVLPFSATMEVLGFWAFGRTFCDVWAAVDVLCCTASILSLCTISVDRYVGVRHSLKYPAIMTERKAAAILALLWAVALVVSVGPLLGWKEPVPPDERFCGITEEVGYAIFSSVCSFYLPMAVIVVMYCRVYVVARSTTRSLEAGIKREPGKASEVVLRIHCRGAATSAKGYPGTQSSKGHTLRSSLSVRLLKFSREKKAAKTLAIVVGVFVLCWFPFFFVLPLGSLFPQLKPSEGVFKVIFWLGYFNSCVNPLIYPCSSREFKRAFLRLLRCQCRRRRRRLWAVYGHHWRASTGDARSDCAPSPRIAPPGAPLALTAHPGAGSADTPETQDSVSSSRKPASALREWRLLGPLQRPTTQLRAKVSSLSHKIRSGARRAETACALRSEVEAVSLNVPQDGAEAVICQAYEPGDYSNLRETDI
In words: In vitro [3H]-prazosin radioligand binding, cloned α-1d adrenoreceptor expressed in LTK cells. As to the method:
as §1, §4, §5, §2, §3

Assay [5] addresses T5, α-1A adrenoreceptor (rat vas deferens) (Rattus norvegicus, UniProt P43140).
T5 construct: from tissue; host or cells: rat vas deferens
T5 sequence (P43140 1-466): T1 sequence (P43140 1-466)
In words: Functional antagonism: inhibition of phenylephrine-induced contraction of rat vas deferens. It counts as cell-based. Conditions: rat vas deferens, phenylephrine-induced contraction, Schild plot. From the text:
Functional assays indicative of pharmacologically defined α-1 adrenoreceptors were used to further characterize compounds. Inhibition of phenylephrine (PE)-induced contraction of canine prostate smooth muscle can be correlated with α-1A adrenoreceptor activation. […] For each of these models, agonist dose response curves were repeated against increasing concentrations of test agent to derive a Schild plot [log ([…]) against log (molarity of test agent)] to determine the pA2.

The target in assay [6] is T6, α-1 Adrenoceptors (Rat Aorta) (Rattus norvegicus, UniProt P23944).
T6 construct: Rat Aorta; from tissue; host or cells: rat aorta
T6 sequence (P23944 1-561): T4 sequence (P23944 1-561)
Kind of assay: Functional antagonism at α-1 adrenoceptors, rat aorta. It counts as cell-based. Conditions: read-out: In Vitro Characterization (pA2) Rat Aorta (converted). A digest of the protocol:
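Phenylephrine dose-response curves for contraction were repeated against increasing test-agent concentrations. pA2 was derived by Schild plot [[…] vs log molarity of test agent].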

pKi: −log10 of the molar value. Counter-ions that a name gives are not always drawn.

Take `COc1cc2[nH]c(=O)n(CCCCN3C[C@@H]4COc5cccc(OC)c5[C@H]4C3)c(=O)c2cc1OC` (racemic) [Example 82, 3-[4-((±)-trans-9-Methoxy-1,2,3,3a,4,9b-hexahydro-[1]-benzopyrano[3,4-c]pyrrol-2-yl)butyl]-6,7-dimethoxy-quinazoline-2,4(1H,3H)-dione dihydrochloride]: the pKi is 9.24 in assay [1], 9.44 in assay [2], 8.31 in assay [3] and 8.80 in assay [4].

As to `COc1cccc2c1[C@@H]1CCN(CCCn3c(=O)[nH]c4c(sc5ncccc54)c3=O)C[C@H]1CO2` (relative stereo) [Example 84, 3-[3-(±)-trans-10-Methoxy-1,3,3,4a,5,10b-hexahydro-2H-[1]-benzopyrano[3,4-c]pyrido-3-yl)propyl]-pyrido[3',2':4,5]thieno[3,2-d]pyrimidine-2,4(1H,3H)-dione hydrochloride], the pKi in assay [1] was 9.32; in assay [2] it was 9.21; in assay [3], 8.31; in assay [4], 8.95.

On to `COc1cc2[nH]c(=O)n(CCCCN3CC[C@H]4c5c(OC)cccc5OC[C@@H]4C3)c(=O)c2cc1OC` (relative stereo) [Example 86, 3-[4-((±)-trans-10-Methoxy-1,3,4,4a,5,10b-hexahydro-2H-[1]-benzopyrano[3,4-c]pyrido-3-yl)butyl]-6,7-dimethoxy-quinazoline-2,4(1H,3H)-dione hydrochloride], for which the pKi in assay [1] was 9.27; in assay [2], 9.69; in assay [3] it was 8.77; in assay [4] it was 9.40.

`COc1cccc2c1[C@@H]1CCN(CCCn3c(=O)[nH]c4c(sc5ccccc54)c3=O)C[C@H]1CO2` (relative stereo) [Example 89, 3-[3-((±)-trans-10-Methoxy-1,3,4,4a,5,10b-hexahydro-2H-[1]-benzopyrano[3,4-c]pyrido-3-yl)propyl]-[1]-benzthieno[3,2-d]pyrimidine-2,4(1H,3H)-dione hydrochloride]: the pKi in assay [1] is 9.88; in assay [2] it was 10.42; in assay [3], 9.95; in assay [4] it was 10.21.

Consider `COc1cccc2c1[C@@H]1CCN(CCn3c(=O)[nH]c4c(sc5ccccc54)c3=O)C[C@H]1CO2` (relative stereo) [Example 90, 3-[2-((±)-trans-10-Methoxy-1,3,4,4a,5,10b-hexahydro-2H-[1]-benzopyrano[3,4-c]pyrido-3-yl)ethyl]-[1]-benzthieno[3,2-d]pyrimidine-2,4(1H,3H)-dione hydrochloride], for which the pKi in assay [1] is 9.49; in assay [2] it was 9.87; in assay [3], 8.64; in assay [4] it was 9.36.

As to `COc1cccc2c1[C@@H]1CN(CCCCn3c(=O)[nH]c4c(sc5ccncc54)c3=O)C[C@@H]1CO2` [Example 28, 3-[4-((3aR,9bR)-cis-9-Methoxy-1,2,3,3a,4,9b-hexahydro-[1]-benzopyrano[3,4-c]pyrrol-2-yl)butyl]-pyrido[3',3':4,5]thieno[3,2-d]pyrimidine-2,4(1H,3H)-dione hydrochloride], the “In Vitro Characterization (pA2) Rat Vas” value in assay [5] came to 9.39. For the same compound, in assay [6], the Kb was 0.195 nM.

With `COc1ccc2sc3c(=O)n(CCCCN4C[C@@H]5COc6cccc(OC)c6[C@@H]5C4)c(=O)[nH]c3c2n1` [Example 30, 3-[4-((3aR,9bR)-cis-9-Methoxy-1,2,3,3a,4,9b-hexahydro-[1]-benzopyrano[3,4-c]pyrrol-2-yl)butyl]-8-methoxy-pyrido[2',3':4,5]thieno[3,2-d]pyrimidine-2,4(1H,3H)-dione hydrochloride], in assay [5], the “In Vitro Characterization (pA2) Rat Vas” value was determined as 9.6. In assay [6], the Kb is 0.468 nM.
